pIC50: −log10 of the molar value.
Legend:
[1] = system: mice; assay: Locomotor activity, nicotine-induced hypomotility; format: in vivo; conditions: Saline/Nicotine (1.5 mg/kg), s.c.
Procedure: Animals. Male ICR mice (20-25 g) obtained from Harlan Laboratories (Indianapolis, Ind.) were used throughout the study. Animals were housed in groups of six and had free access to food and water. Adult, male Long-Evans rats (350-460 g), obtained from Harlan (Dublin, Va.), were individually housed in a temperature-controlled (20-22° C.) environment with a 12-hour light-dark cycle (lights on at 7 a.m.). Rats were maintained within the indicated weight range by restricted post-session feeding and had ad libitum water in their home cages. Rats were drug-naive at the beginning of the study. Animals were housed in an AALAC approved facility and the study was approved by the Institutional Animal Care and Use Committee of Virginia Commonwealth University.
Locomotor activity. Mice were placed into individual Omnitech photocell activity cages (28×16.5 cm) immediately after s.c. administration of either 0.9% saline or nicotine (6.2 μmol/kg or 1 mg/kg) and were allowed to acclimate for 10 minutes. Interruptions of the photocell beams (two banks of eight cells each) were then recorded for the next 10 minutes. Data were expressed as percentage of depression where % depression=[1−(counts from nicotine-treated animals/counts from vehicle-treated animals)]×100. Mice were pretreated s.c. with either saline or TMPH 10 minutes before nicotine.
Eight to twelve mice were tested in each treatment group and each animal was tested only once.
Statistical analysis. Statistical analysis of all analgesic and in vivo studies was performed using either t-test or analysis of variance (ANOVA) with Tukey's test post hoc test when appropriate. All differences were considered significant at p<0.05. AD50 values with 95% CL for behavioral data were calculated by unweighted least-squares linear regression as described by Tallarida and Murray (Tallarida and Murray Manual of Pharmacological Calculations with Computer Programs. 1987, Springer-Verlag, New York).

[2] = system: mice; assay: Body temperature, nicotine-induced hypothermia; format: in vivo; conditions: Saline/Nicotine (1.5 mg/kg), s.c.
Procedure: Animals. Male ICR mice (20-25 g) obtained from Harlan Laboratories (Indianapolis, Ind.) were used throughout the study. Animals were housed in groups of six and had free access to food and water. Adult, male Long-Evans rats (350-460 g), obtained from Harlan (Dublin, Va.), were individually housed in a temperature-controlled (20-22° C.) environment with a 12-hour light-dark cycle (lights on at 7 a.m.). Rats were maintained within the indicated weight range by restricted post-session feeding and had ad libitum water in their home cages. Rats were drug-naive at the beginning of the study. Animals were housed in an AALAC approved facility and the study was approved by the Institutional Animal Care and Use Committee of Virginia Commonwealth University. Body temperature. Rectal temperature was determined by a thermistor probe (inserted 24 mm) and digital thermometer (Yellow Springs Instrument Co., Yellow Springs, Ohio). […] The difference in rectal temperature before and after treatment was calculated for each mouse. The ambient temperature of the laboratory varied from 21-24° C. from day to day. […] Psychopharmacology (Berl), 1995, 117:67-73). Eight to twelve mice were tested in each treatment group and each animal was tested only once. Statistical analysis. Statistical analysis of all analgesic and in vivo studies was performed using either t-test or analysis of variance (ANOVA) with Tukey's test post hoc test when appropriate.

[3] = target: T1, Rat α4β2 (Rattus norvegicus, UniProt P09483+P12390); conditions: mecamylamine, comparison value in discussion; read-out: IC50 (peak), expressed α4β2 subtypes; cited from earlier work
T1 construct: expressed in transfected cells; host or cells: Xenopus laevis oocytes injected with subunit cRNAs; clones from Dr. Jim Boulter (UCLA)
T1 sequence (P09483 31-630): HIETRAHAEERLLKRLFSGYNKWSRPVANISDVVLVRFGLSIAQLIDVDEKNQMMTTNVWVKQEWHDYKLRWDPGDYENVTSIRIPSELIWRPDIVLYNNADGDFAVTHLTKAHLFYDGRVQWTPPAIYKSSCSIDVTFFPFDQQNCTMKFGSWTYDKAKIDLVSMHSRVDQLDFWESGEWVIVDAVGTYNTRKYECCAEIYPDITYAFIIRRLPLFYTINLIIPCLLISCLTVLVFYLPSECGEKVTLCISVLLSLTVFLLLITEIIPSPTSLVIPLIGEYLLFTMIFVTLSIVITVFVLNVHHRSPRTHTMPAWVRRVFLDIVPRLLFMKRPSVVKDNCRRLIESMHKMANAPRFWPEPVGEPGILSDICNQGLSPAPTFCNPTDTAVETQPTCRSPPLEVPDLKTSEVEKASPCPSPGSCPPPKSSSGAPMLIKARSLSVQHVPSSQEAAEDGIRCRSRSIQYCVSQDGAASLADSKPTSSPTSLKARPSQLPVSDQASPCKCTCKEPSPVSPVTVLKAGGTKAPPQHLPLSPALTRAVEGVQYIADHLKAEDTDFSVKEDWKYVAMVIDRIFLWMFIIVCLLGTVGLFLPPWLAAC
T1 sequence (P12390 25-500): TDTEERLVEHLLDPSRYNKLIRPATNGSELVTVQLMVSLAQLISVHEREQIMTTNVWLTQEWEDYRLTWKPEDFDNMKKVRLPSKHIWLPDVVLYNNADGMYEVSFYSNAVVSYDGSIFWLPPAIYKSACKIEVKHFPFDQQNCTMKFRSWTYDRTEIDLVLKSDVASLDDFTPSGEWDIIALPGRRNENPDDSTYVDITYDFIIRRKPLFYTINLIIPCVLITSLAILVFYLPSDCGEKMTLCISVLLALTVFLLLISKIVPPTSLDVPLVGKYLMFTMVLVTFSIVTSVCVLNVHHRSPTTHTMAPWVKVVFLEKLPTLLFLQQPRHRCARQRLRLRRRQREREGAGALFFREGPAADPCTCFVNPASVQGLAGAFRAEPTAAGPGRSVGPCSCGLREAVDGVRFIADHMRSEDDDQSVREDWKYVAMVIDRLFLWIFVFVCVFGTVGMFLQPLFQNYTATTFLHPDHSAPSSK

## CN1CCCC1c1cccnc1 (single isomer, unassigned; (-)) [Nicotine, (−)-Nicotine]
[1]
  Locomotor Activity # Interrupts (Mean ± SEM): 358 ± 92 # Interrupts
[2]
  Body temperature Δ° C. (Mean ± SEM): −5.0 ± 0.3 °C

## CNC1(C)C2CCC(C2)C1(C)C (stereo not drawn) [Mecamylamine]
[3]
  pIC50: 5.60

Source: patent publication US7531555B2, “Compositions and methods for selective inhibition of nicotine acetylcholine receptors” (University of Florida Research Foundation, Inc., priority 2003, dated 2009)
